According to patent US20240024403A1, “Compositions and Methods for Managing Weight” (Unigen, Inc., priority 2012, published 2024):
Where “and” joins values, the source holds several entries; their conditions need not be identical. Identical values can stand only once. Entries after “also recorded” stand apart in the source; their conditions may differ.

Test: High fat diet induced obesity (DIO) rat model
Assay type: in vivo, Spraue-Dawley rats
Set-up: NASH (sum) / NSAH (sum): scale not given here; Epididymal fatty tissue weight / Retroperitoneal fatty tissue weight / Total Fat / Epididymal Fat, absolute weight / Retroperitoneal Fat, absolute weight: unit not given here
Conditions: for Total Body Weight: in g (unit assumed)
Description: Male Spraue-Dawley rats, age 4-6 weeks (OrientBio, Inc.; Seongnam, Korea) were housed individually in Polycarbonate cages in a room with a 12 hr:12 hr light-dark cycle and an ambient temperature of 24° C. All the rats were fed a commercial chow diet for 1 week after arrival in the animal facility. Rats were then divided into normal and obesity groups and fed with normal diet (ND) and high fat diets (HFD) respectively. The HFD group was divided into multiple treatment groups: a high fat diet vehicle group (HFD), an orlistat (purchased as OTC drug Alli®) positive control treatment group (ORI, 80 mg/kg of animal weight, 2 times/day). In some examples, sibutramine was used as a positive control (SIB, 3 mg/kg for rat studies and […] for mice studies).
Body weight was measured once or twice per week and feed intake was measured twice per week. Body weight gain was determined for each study group by measurement of the body weight difference for each study group between each successive week of the study. At the end of the experimental period, following a 12-h fasting period, the animals were anesthetized with ether, and blood was drawn from the abdominal vein. Liver and kidney and adipose tissues (epididymal, retroperitoneal, perirenal adipose tissues) were removed from each animal, rinsed with physiological saline, and weighted. Serum concentrations of glucose, total cholesterol and LDL-cholesterol were determined using automatic analyzer (INTEGRA 400, Roche, Germany). Statistical significance of test results was performed by Student's t-test.

[1] = DIO rats, ORI 80 mg/kg, 55 day study, mean
[2] = DIO rats, blood at end of study, ORI 80 mg/kg, mean
[3] = DIO rats, liver pathology, ORI 80 mg/kg, mean
[4] = DIO rats, liver pathology score, ORI group, mean
[5] = SIB 3 mg/kg, DIO rats, blood at end of study
[6] = SIB 3 mg/kg, rats fed a high fat diet
[7] = SIB 3 mg/kg, rats fed a high fat diet, 42 days

For `CCCCCCCCCCC[C@@H](C[C@@H]1OC(=O)[C@H]1CCCCCC)OC(=O)[C@H](CC(C)C)NC=O` [ORI, orlistat], the “Body Weight Gain” value [1] was 1.22 g/day, the “Food Intake” value [1] was 25.71 g/day and the “Food Efficiency Ratio (FER)” value (DIO rats, ORI 80 mg/kg, 55 day study, body weight gain/food intake) was 0.05. The “Weight Gain” value (DIO rats, ORI 80 mg/kg, day 3, mean) was 2.80, the “Weight Gain” value (DIO rats, ORI 80 mg/kg, day 7, mean) was 1.04 and the “Weight Gain” value (DIO rats, ORI 80 mg/kg, day 10, mean) was 0.82. For the same compound, the “Weight Gain” value (DIO rats, ORI 80 mg/kg, day 14, mean) was 3.40, the “Weight Gain” value (DIO rats, ORI 80 mg/kg, day 17, mean) was 3.34 and the “Weight Gain” value (DIO rats, ORI 80 mg/kg, day 21, mean) was 15.89. The “Weight Gain” value (DIO rats, ORI 80 mg/kg, day 24, mean) was 19.89, the “Weight Gain” value (DIO rats, ORI 80 mg/kg, day 28, mean) was 28.19 and the “Weight Gain” value (DIO rats, ORI 80 mg/kg, day 31, mean) was 33.33. The “Weight Gain” value (DIO rats, ORI 80 mg/kg, day 35, mean) was 38.43, the “Weight Gain” value (DIO rats, ORI 80 mg/kg, day 37, mean) was 43.95 and the “Weight Gain” value (DIO rats, ORI 80 mg/kg, day 42, mean) was 49.06. For the same compound, the “Weight Gain” value (DIO rats, ORI 80 mg/kg, day 45, mean) was 59.88, the “Weight Gain” value (DIO rats, ORI 80 mg/kg, day 49, mean) was 63.68 and the “Weight Gain” value (DIO rats, ORI 80 mg/kg, day 52, mean) was 71.12. The “Weight Gain” value (DIO rats, ORI 80 mg/kg, day 55, mean) was 68.11, the “Epididymal fatty tissue weight” value (DIO rats, ORI 80 mg/kg, mean) was 17.87 and the “Perirenal fatty tissue weight” value (DIO rats, ORI 80 mg/kg, mean) was 6.11. The “Retroperitoneal fatty tissue weight” value (DIO rats, ORI 80 mg/kg, mean) was 19.21, the “Total Fat” value (DIO rats, ORI 80 mg/kg, sum of epididymal, retroperitoneal and perirenal fat) was 43.19 and the ALP [2] was 480.16 U/L. For the same compound, the ALT [2] was 35.65 U/L, the AST [2] was 146.39 U/L and the LDL-C [2] was 10.63 mg/dL. For the same compound, the T-chol [2] was 110.13 mg/dL, the TG [2] was 216.38 mg/dL and the “Hepatocellular ballooning (0-2)” value [3] was 0.675 and 0.625. The “Lobular Inflammation (0-3)” value [3] was 1.500, the “NASH (sum)” value [3] was 2.875 and the “Steatosis (0-3)” value [3] was 0.750. The “Epididymal Fat, absolute weight” value (DIO rats, ORI group, mean) was 17.87, the “FER (Food efficiency ratio)” value (DIO rats, ORI group, mean) was 0.05 and the “Food Intake” value (DIO rats, ORI group, mean) was 25.71 g/day. The LDL-C (DIO rats, ORI group, mean) was 10.63 mg/dL, the “Perirenal Fat, absolute weight” value (DIO rats, ORI group, mean) was 6.11 and the “Retroperitoneal Fat, absolute weight” value (DIO rats, ORI group, mean) was 19.21. The T-chol (DIO rats, ORI group, mean) was 110.13 mg/dL, the TG (DIO rats, ORI group, mean) was 216.38 mg/dL and the “Total Fat” value (DIO rats, ORI group, mean) was 43.19. For the same compound, the “Weight Gain” value (DIO rats, ORI group, mean) was 1.22 g/day, the “Weight Gain” value (DIO rats, day 3, ORI group, mean) was 2.80 and the “Weight Gain” value (DIO rats, day 7, ORI group, mean) was 1.04. The “Weight Gain” value (DIO rats, day 10, ORI group, mean) was 0.82, the “Weight Gain” value (DIO rats, day 14, ORI group, mean) was 3.40 and the “Weight Gain” value (DIO rats, day 17, ORI group, mean) was 3.34. The “Weight Gain” value (DIO rats, day 21, ORI group, mean) was 15.89, the “Weight Gain” value (DIO rats, day 24, ORI group, mean) was 19.89 and the “Weight Gain” value (DIO rats, day 28, ORI group, mean) was 28.19. The “Weight Gain” value (DIO rats, day 31, ORI group, mean) was 33.33, the “Weight Gain” value (DIO rats, day 35, ORI group, mean) was 38.43 and the “Weight Gain” value (DIO rats, day 37, ORI group, mean) was 43.95. The “Weight Gain” value (DIO rats, day 42, ORI group, mean) was 49.06, the “Weight Gain” value (DIO rats, day 45, ORI group, mean) was 59.88 and the “Weight Gain” value (DIO rats, day 49, ORI group, mean) was 63.68. The “Weight Gain” value (DIO rats, day 52, ORI group, mean) was 71.12, the “Weight Gain” value (DIO rats, day 55, ORI group, mean) was 68.11 and the “Hepatocellular ballooning (0-2)” value [4] was 0.625. The “Lobular Inflammation (0-3)” value [4] was 1.500, the “NSAH (sum)” value [4] was 2.875 and the “Steatosis (0-3)” value [4] was 0.750. The “blood biochemistry parameters vs HFD group” value (orlistat 80 mg/kg, 2 times/day) was “no statistically significant decreases in any of the measured blood components; also recorded: did not show any statistically significant decreases in any of the measured blood chemistry components”, the “body weight gain vs HFD group” value (orlistat 80 mg/kg, 2 times/day) was “statistically significant decreases in body weight gain on day 7 through to day 55” and the “liver pathology (NASH score) vs HFD group” value (orlistat 80 mg/kg, 2 times/day) was “statistically significant decreases in Steatosis, Lobular Inflammation, Hepatocellular ballooning and NASH score”. For the same compound, the “organ and fat pad weights vs HFD group” value (orlistat 80 mg/kg, 2 times/day) was “statistically significant decreases in all categories of fat measurement; also recorded: statistically significant decreases in Epididymal Fat, Retroperitoneal Fat, Perirenal Fat and Total Fat” and the “weight gain per day, food intake per day, food efficiency ratio (FER) vs HFD group” value (orlistat 80 mg/kg, 2 times/day) was “statistically lower values than the HFD group for average Body Weight Gain per day, average Food Intake per day and Food Efficiency Ratio”.
For `CC(C)CC(N(C)C)C1(c2ccc(Cl)cc2)CCC1` (stereo not drawn) [SIB, sibutramine], the “Fasting Glucose” value [5] was 136.00 mg/dL, the T-chol [5] was 106.60 mg/dL and the Triglyceride [5] was 41.10 mg/dL. The “Fat Deposit Weight: Epididymal Fat” value [6] was 6.698, the “Fat Deposit Weight: Perirenal Fat” value [6] was 1.562 and the “Fat Deposit Weight: Retroperitoneal Fat” value [6] was 3.190. The “Fat Deposit Weight: Total Fat” value [6] was 11.450, the “Food Efficiency Ratio (FER)” value [7] was 0.155 and the “Food Intake” value [7] was 13.880 g/day. For the same compound, the “Weight Gain” value [7] was 2.160 g/day, the “Total Body Weight” value (day 0, SIB 3 mg/kg, DIO rats) was 364.15 and the “Total Body Weight” value (day 1, SIB 3 mg/kg, DIO rats) was 368.06. The “Weight Gain” value (day 1 vs day 0, SIB 3 mg/kg, DIO rats) was 3.91, the “Total Body Weight” value (day 2, SIB 3 mg/kg, DIO rats) was 356.78 and the “Weight Gain” value (day 2 vs day 0, SIB 3 mg/kg, DIO rats) was −7.37. For the same compound, the “Total Body Weight” value (day 3, SIB 3 mg/kg, DIO rats) was 357.21, the “Weight Gain” value (day 3 vs day 0, SIB 3 mg/kg, DIO rats) was −6.94 and the “Total Body Weight” value (day 4, SIB 3 mg/kg, DIO rats) was 358.78. The “Weight Gain” value (day 4 vs day 0, SIB 3 mg/kg, DIO rats) was −5.37, the “Total Body Weight” value (day 7, SIB 3 mg/kg, DIO rats) was 368.11 and the “Weight Gain” value (day 7 vs day 0, SIB 3 mg/kg, DIO rats) was 3.96. The “Total Body Weight” value (day 10, SIB 3 mg/kg, DIO rats) was 377.69, the “Weight Gain” value (day 10 vs day 0, SIB 3 mg/kg, DIO rats) was 13.54 and the “Total Body Weight” value (day 14, SIB 3 mg/kg, DIO rats) was 388.70. The “Weight Gain” value (day 14 vs day 0, SIB 3 mg/kg, DIO rats) was 24.55, the “Total Body Weight” value (day 18, SIB 3 mg/kg, DIO rats) was 395.38 and the “Weight Gain” value (day 18 vs day 0, SIB 3 mg/kg, DIO rats) was 31.23. The “Total Body Weight” value (day 21, SIB 3 mg/kg, DIO rats) was 407.06, the “Weight Gain” value (day 21 vs day 0, SIB 3 mg/kg, DIO rats) was 42.91 and the “Total Body Weight” value (day 24, SIB 3 mg/kg, DIO rats) was 414.91. For the same compound, the “Weight Gain” value (day 24 vs day 0, SIB 3 mg/kg, DIO rats) was 50.75, the “Total Body Weight” value (day 28, SIB 3 mg/kg, DIO rats) was 425.99 and the “Weight Gain” value (day 28 vs day 0, SIB 3 mg/kg, DIO rats) was 61.84. The “Total Body Weight” value (day 31, SIB 3 mg/kg, DIO rats) was 432.32, the “Weight Gain” value (day 31 vs day 0, SIB 3 mg/kg, DIO rats) was 68.17 and the “Total Body Weight” value (day 35, SIB 3 mg/kg, DIO rats) was 442.55. For the same compound, the “Weight Gain” value (day 35 vs day 0, SIB 3 mg/kg, DIO rats) was 78.40, the “Total Body Weight” value (day 38, SIB 3 mg/kg, DIO rats) was 447.66 and the “Weight Gain” value (day 38 vs day 0, SIB 3 mg/kg, DIO rats) was 83.51. The “Total Body Weight” value (day 42, SIB 3 mg/kg, DIO rats) was 454.96, the “Weight Gain” value (day 42 vs day 0, SIB 3 mg/kg, DIO rats) was 90.81 and the “blood biochemistry parameters vs HFD group” value (sibutramine 3 mg/kg) was “no statistically significant changes compared to the HFD group for any of the measured endpoints”. For the same compound, the “body weight gain vs HFD group” value (sibutramine 3 mg/kg) was “statistically significant decreases in body weight gains from day 2 to completion of the study on day 42”, the “organ and fat pad weights vs HFD group” value (sibutramine 3 mg/kg) was “statistically significant decreases in all categories of fat measurement” and the “total body weight vs HFD group” value (sibutramine 3 mg/kg) was “statistically significant reduction in body weight at day 2 through the remainder of the study (day 42)”. The “weight gain per day, food intake per day, food efficiency ratio (FER) vs HFD group” value (sibutramine 3 mg/kg) was “statically lower values than the HFD group for Weight Gain per day, Food Intake per day, and Food Efficiency Ratio”.
